From patent US20260294915A1, “COMBINATION THERAPY COMPRISING A MAT2A INHIBITOR AND A TOPOISOMERASE INHIBITOR, A SPLICING INHIBITOR SULFONAMIDE, OR A KIF18 INHIBITOR” (IDEAYA BIOSCIENCES, INC., priority 2023, published 2026)
Like-named read-outs stand apart in the source and are kept apart here.

Experiments:
Format in all cases: cell-based
Panc 03.27 Parent = test: 10-day proliferation screen with Compound A pre-treatment (Example 3); conditions: Homo sapiens, read-out: Growth IC50
Method: (§1) A 10-day proliferation screen was performed in 15 pancreatic, non-small cell lung, and bladder cancer cell lines: 10 MTAP null and 5 MTAP wild-type. Optimal cell seeding for all cell lines was determined by assessing the growth over a range of seeding densities in a 384-well format to identify conditions that permitted proliferation for 10 days. […] Cells were incubated at 37° C. with 5% CO2 for 4 days to allow for target engagement of the pre-treatment compound. Maintaining the pre-treatment condition, cells were also treated with an 11-point, three-fold titration series of compounds from a chemically diverse library of 424 compounds. The combination compound concentrations ranged from 0.2 nM to 14,679 nM. A plate of cells was harvested at the time of combination compound addition to quantify the number of cells at the start of the combination (T0). For cell quantification, the harvested cells were lysed with CellTiter-Glo (CTG) (Promega) reagent according to the manufacturer's protocol and the chemiluminescent signal was detected on a Synergy Neo plate reader (ThermoFisher, serial #140715A). CTG estimates cell number through detection of cellular ATP levels. Cells were incubated with the drug combinations at 37° C. with 5% CO2 for an additional 6 days for a total of a 10-day assay including the pre-treatment. Cells were then lysed with CTG and the chemiluminescent signal was measured. CTG values obtained after the 10-day treatment were background subtracted, expressed as a percent of the T0 value, and plotted against compound concentration. Data were fit with a four-parameter equation to generate concentration response curves. Growth IC50 values and maximal growth inhibition were compared between the DMSO and the Compound A pre-treated cells for each combination titration. Combination hit calling was based on the observation of >2-fold shift in growth IC50 and/or greater than 20% […] in growth inhibition.

[1] = tested on: Panc 03.27 MTAP Knock-out Clone 31; test: as above; conditions: Homo sapiens, read-out: Growth IC50
Method: as §1

UMUC11 = test: as above; conditions: read-out: Growth IC50
Method: (§2) A 10-day proliferation screen was performed in 15 pancreatic, non-small cell lung, and bladder cancer cell lines: 10 MTAP null and 5 MTAP wild-type. Optimal cell seeding for all cell lines was determined by assessing the growth over a range of seeding densities in a 384-well format to identify conditions that permitted proliferation for 10 days. Cells were then plated at the optimal seeding density in the presence of 20-150 nM of Compound A or DMSO vehicle control. Cells were incubated at 37° C. with 5% CO2 for 4 days to allow for target engagement of the pre-treatment compound. Maintaining the pre-treatment condition, cells were also treated with an 11-point, three-fold titration series of compounds from a chemically diverse library of 424 compounds. The combination compound concentrations ranged from 0.2 nM to 14,679 nM. A plate of cells was harvested at the time of combination compound addition to quantify the number of cells at the start of the combination (T0). For cell quantification, the harvested cells were lysed with CellTiter-Glo (CTG) (Promega) reagent according to the manufacturer's protocol and the chemiluminescent signal was detected on a Synergy Neo plate reader (ThermoFisher, serial #140715A). CTG estimates cell number through detection of cellular ATP levels. Cells were incubated with the drug combinations at 37° C. with 5% CO2 for an additional 6 days for a total of a 10-day assay including the pre-treatment. Cells were then lysed with CTG and the chemiluminescent signal was measured. CTG values obtained after the 10-day treatment were background subtracted, expressed as a percent of the T0 value, and plotted against compound concentration. Data were fit with a four-parameter equation to generate concentration response curves. Growth IC50 values and maximal growth inhibition were compared between the DMSO and the Compound A pre-treated cells for each combination titration. Combination hit calling was based on the observation of >2-fold shift in growth IC50 and/or greater than 20% decrease in growth inhibition.

NCI-H2170 = test: as above; conditions: Homo sapiens, read-out: Growth IC50
Method: as §2

NCI-H520 = test: as above; conditions: Homo sapiens, read-out: Growth IC50
Method: as §2

J82 = test: as above; conditions: Homo sapiens, read-out: Growth IC50
Method: as §2

SW900 = test: as above; conditions: Homo sapiens, read-out: Growth IC50
Method: as §2

TCCSUP = test: as above; conditions: Homo sapiens, TCC-SUP, read-out: Growth IC50
Method: as §2

NCI-H838 = test: as above; conditions: Homo sapiens, read-out: Growth IC50
Method: as §2

UMUC5 = test: as above; conditions: read-out: Growth IC50
Method: as §2

RT112/84 = test: as above; conditions: Homo sapiens, read-out: Growth IC50
Method: as §2

OE33 = test: as above; conditions: Homo sapiens, read-out: Growth IC50
Method: as §2

HuP-T4 = test: as above; conditions: Homo sapiens, read-out: Growth IC50
Method: as §2

NCI-H2228 = test: as above; conditions: Homo sapiens, read-out: Growth IC50
Method: as §2

[2] = tested on: 15 pancreatic, non-small cell lung, and bladder cancer cell lines: 10 MTAP null and 5 MTAP wild-type; test: 10-day proliferation screen with Compound A pre-treatment, panel summary (Example 3)
Method: as §2, with “The combination compound concentrations ranged from 0.2 nM to 14,679 nM.” left out, “CTG estimates cell number through detection of cellular ATP levels. Cells were incubated with the drug combinations at 37° C. with 5% CO2 for an additional 6 days for a total of a 10-day assay including the pre-treatment.” left out, “Data were fit with a four-parameter equation to generate concentration response curves. Growth IC50 values and maximal growth inhibition were compared between the DMSO and the Compound A pre-treated cells for each combination titration. Combination hit calling was based on the observation of >2-fold shift in growth IC50 and/or greater than 20% decrease in growth inhibition.” left out

[3] = PANC-03-27, Cmpd A pre-treatment 15 nM

SMILES: NS(=O)(=O)c1ccc(S(=O)(=O)Nc2cccc3c(Cl)c[nH]c23)cc1 [Indisulam, N-(3-chloro-1H-indol-7-yl)benzene-1,4-disulfonamide]
- IC50 (Panc 03.27 Parent; [3]): 618 nM
- IC50 (Panc 03.27 Parent; PANC-03-27, DMSO pre-treatment): 814 nM
- IC50 [1, 3]: 873 nM
- IC50 ([1]; PANC-03-27, DMSO pre-treatment): 2170 nM
- IC50 (UMUC11; Cmpd A pre-treatment 150 nM): 1270 nM
- IC50 (UMUC11; DMSO pre-treatment): 864 nM
- IC50 (NCI-H2170; NCI-H2170, Cmpd A pre-treatment 80 nM): 5.55 µM
- IC50 (NCI-H2170; NCI-H2170, DMSO pre-treatment): 7.17 µM
- IC50 (NCI-H520; NCI-H520, Cmpd A pre-treatment 80 nM): 790 nM
- IC50 (NCI-H520; NCI-H520, DMSO pre-treatment): 727 nM
- IC50 (J82; J82, Cmpd A pre-treatment 150 nM): 7.1 µM
- IC50 (J82; J82, DMSO pre-treatment): 12.5 µM
- IC50 (SW900; SW900, Cmpd A pre-treatment 80 nM): 1100 nM
- IC50 (SW900; SW900, DMSO pre-treatment): 2280 nM
- IC50 (TCCSUP; Cmpd A pre-treatment 150 nM): 6.08 µM
- IC50 (TCCSUP; DMSO pre-treatment): 8.66 µM
- IC50 (NCI-H838; NCI-H838, Cmpd A pre-treatment 20 nM): 539 nM
- IC50 (NCI-H838; NCI-H838, Cmpd A pre-treatment 150 nM): 342 nM
- IC50 (NCI-H838; NCI-H838, DMSO pre-treatment (control for 20 nM Cmpd A)): 1050 nM
- IC50 (NCI-H838; NCI-H838, DMSO pre-treatment (control for 150 nM Cmpd A)): 807 nM
- IC50 (UMUC5; Cmpd A pre-treatment 150 nM): 807 nM
- IC50 (UMUC5; DMSO pre-treatment): 1830 nM
- IC50 (RT112/84; RT112/84, Cmpd A pre-treatment 150 nM): 229 nM
- IC50 (RT112/84; RT112/84, DMSO pre-treatment): 913 nM
- IC50 (OE33; OE33, Cmpd A pre-treatment 150 nM): 5.37 µM
- IC50 (OE33; OE33, DMSO pre-treatment): 12.1 µM
- IC50 (HuP-T4; HuP-T4, Cmpd A pre-treatment 150 nM): 549 nM
- IC50 (HuP-T4; HuP-T4, DMSO pre-treatment): 1070 nM
- IC50 (NCI-H2228; NCI-H2228, Cmpd A pre-treatment 80 nM): 191 nM
- IC50 (NCI-H2228; NCI-H2228, DMSO pre-treatment): 167 nM
- cell lines with growth IC50 shifts ≥2-fold ([2]; MTAP-deficient cell lines): 7/10
- cell lines with growth IC50 shifts ≥2-fold ([2]; wild type cell lines): 1/5
